{"source": "patent US12458614B2", "about": "“Therapeutic agents for improved mobility and cognitive function and for treating neurodegenerative diseases and lysosomal storage disorders” (priority 2017, dated 2025)", "key": {"[1]": {"tested_on": "patients with amyotrophic lateral sclerosis (ALS)", "experiment": "Case studies, amyotrophic lateral sclerosis", "type": "in vivo, human", "text": "The results were documented by video."}, "[2]": {"tested_on": "subjects with no apparent dysfunction in cognitive ability or movement/balance", "experiment": "Psychomotor Vigilance Task (Mind Metrics App)", "type": "in vivo, human", "text": "For example, the Psychomotor Vigilance Task (PVT) is a sustained-attention, reaction-timed task that measures the speed with which subjects respond to a visual stimulus. The subject monitors a screen and presses the screen as quickly as possible upon the appearance of visual stimuli. The visual stimuli will then disappear and reappear (at irregular time intervals) e.g., 10 times over the course of the test, with the subject touching the screen as quickly as possible upon each reappearance. Test performance is quantified from an average of the e.g. 10 reaction times. The subject's reaction speed and alertness was assessed using the Mind Metrics App (Psychomotor Vigilance Task, 10 trials per test). The Psychomotor Vigilance Task (PVT) is a sustained-attention, reaction-timed task that measures the speed with which subjects respond to a visual stimulus. The subject is required to monitor a screen and press the screen as quickly as possible upon the appearance of visual stimuli. The visual stimuli will then disappear and reappear (at irregular time intervals) 10 times over the course of the test, with the subject touching the screen as quickly as possible upon each reappearance. Test performance is quantified from an average of the 10 reaction times. […] The subject was assessed for 2 weeks prior to taking acetyl-leucine, which constitutes the baseline period. […] Medication was taken at least 2 hours after and 30 minutes prior to eating. The 5 g daily dose was taken in 3 separate doses throughout the day—2 g upon waking, 1.5 g prior to lunch and 1.5 g prior to the evening meal. Daily treatments and assessments continued for 4 weeks. […]"}, "Npc1−/− mice": {"tested_on": "Npc1−/− mice", "experiment": "Observation of coat condition and disease symptoms", "type": "in vivo, mouse", "conditions": "Npc1−/− mice treated from weaning", "text": "Separate groups of Npc1^-/- and Npc1^+/+ mice were left untreated, as controls."}, "[3]": {"tested_on": "Mucolipidosis Type IIIA (MLIIIA) patient fibroblasts", "experiment": "Lysosomal volume via LysoTracker", "type": "cell-based, human", "conditions": "1 mM, 6 days"}, "[4]": {"tested_on": "patient with Spinocerebellar Ataxia (SCA) 1", "experiment": "Case study, Spinocerebellar Ataxia (SCA) 1", "type": "in vivo, human"}, "[5]": {"tested_on": "Sandhoff disease model, Hexb−/− mouse", "experiment": "Lifespan of Sandhoff mouse", "type": "in vivo", "conditions": "0.1 g/kg from 3 weeks of age, p<0.05 vs untreated", "procedure": "This study made use of a mouse model of Sandhoff disease, the Hexb^−/− mouse, as descrbed in Jeyakumar et al. (Jeyakumar, M. et al. (1999) Proc. Natl. Acad. Sci. USA 96: 6388-6393).\nIn FIG. 7A, acetyl-leucine-treated mice were treated with 0.1 g/kg acetyl-leucine from 3 weeks of age. The asterisks (*) indicates a p-value of <0.05 vs untreated Sandhoff mice. Data is average of n=6 mice per group. Without treatment, the median survival time of Sandhoff mice was 112 days. Treatment with acetyl-leucine (0.1 g/kg body weight since 3 weeks of age) increased the median lifespan to 120 days."}, "[6]": {"conditions": "ALS Patient 1, after a further 20 days"}, "[7]": {"conditions": "ALS Patient 2, after approximately 2 months"}, "[8]": {"conditions": "one line per subject (age/gender 66 M, 29 M, 55 F, 50 M, 53 M, 48 F), listed as acetyl-leucine"}}, "note": "“And” between values parts separate entries of the source, which are not always exact repeats. Equal values may be shown once.", "data": [{"smiles": "CC(=O)NC(CC(C)C)C(=O)O", "note": "(racemic) [acetyl-DL-leucine]", "values": [{"measurement": "Overall symptoms", "setting": "[1]; ALS Patient 1", "value": "improvement in symptoms"}, {"measurement": "Speech after stopping treatment", "setting": "[1]; ALS Patient 1, about 7 days plus 1-2 additional weeks off treatment", "value": "deterioration of speech"}, {"measurement": "Speech (patient report)", "setting": "[1]; ALS Patient 1, after 15 days, 3 then 5 gram per day", "value": "significant improvement of speech"}, {"measurement": "Paresis of right foot-dorsiflexors / foot drop", "setting": "[1]; [6]", "value": "foot drop had improved dramatically"}, {"measurement": "Sleep (patient report)", "setting": "[1]; [6]", "value": "improvement in sleep"}, {"measurement": "Speech (patient report)", "setting": "[1]; [6]", "value": "further improvement of speech"}, {"measurement": "Symptomatology after resuming treatment", "setting": "[1]; ALS Patient 1, second resumption", "value": "improved symptomatology, in particular speech"}, {"measurement": "Motor function of the left hand", "setting": "[1]; [7]", "value": "progredient deterioration of the motor function of the left hand"}, {"measurement": "Swallowing functions", "setting": "[1]; [7]", "value": "remained stable"}, {"measurement": "Walking (patient report)", "setting": "[1]; [7]", "value": "discrete improvement of walking"}, {"measurement": "Symptomatology (patient report)", "setting": "[1]; ALS Patient 3, after one month", "value": "did not report improvement of symptomatology"}, {"measurement": "Symptomatology after suspension", "setting": "[1]; ALS Patient 4, 10 days after therapy was suspended", "value": "worsening of symptomatology"}, {"measurement": "Symptomatology (patient report)", "setting": "[1]; ALS Patient 4, after about one month", "value": "subjective improvement of dysphagia and less hypersalivation"}, {"measurement": "% change in Reaction Time", "setting": "[2]; on-treatment vs baseline, one line per subject (66 M, 29 M, 55 F, 50 M, 53 M, 48 F), listed as acetyl-leucine", "value": "−3.593% and 1.408% and 8.13% and −10.24% and −7.474% and −30.86%"}, {"measurement": "Details on Subjective Improvement", "setting": "[2]; one line per subject", "value": "Improvement in general"}, {"measurement": "Statistically significant improvement in PVT performance on treatment?", "setting": "[2]; [8]", "value": "Yes (4×) and No (2×)"}, {"measurement": "Subjective Improvement on treatment?", "setting": "[2]; [8]", "value": "Yes (5×) and No"}, {"measurement": "Adverse effects", "setting": "[2]; person five", "value": "None reported"}, {"measurement": "Subjective measurements", "setting": "[2]; person five", "value": "feeling less tired than usual"}, {"measurement": "Adverse effects", "setting": "[2]; person four", "value": "None reported"}, {"measurement": "Subjective measurements", "setting": "[2]; person four", "value": "improvement in general alertness"}, {"measurement": "Adverse effects", "setting": "[2]; person one", "value": "None reported"}, {"measurement": "Subjective measurements", "setting": "[2]; person one", "value": "shortening of the time required to go from ‘asleep’ to ‘fully awake’"}, {"measurement": "Adverse effects", "setting": "[2]; person six", "value": "None reported"}, {"measurement": "Subjective measurements", "setting": "[2]; person six", "value": "no difference between on and off medication"}, {"measurement": "Subjective measurements", "setting": "[2]; person three", "value": "improvement in general alertness"}, {"measurement": "Adverse events", "setting": "[2]; person three, first week on medication, one occasion", "value": "mild dizziness/lightheadedness"}, {"measurement": "Adverse effects", "setting": "[2]; person two", "value": "None reported"}, {"measurement": "Subjective measurements", "setting": "[2]; person two", "value": "improvement in general alertness"}, {"measurement": "Delay of discernible disease symptoms vs untreated Npc1−/− littermates", "setting": "Npc1−/− mice", "value": "two"}, {"measurement": "LysoTracker fluorescence vs untreated disease fibroblasts", "setting": "[3]", "value": "trend in reducing LysoTracker fluorescence toward control level"}, {"measurement": "Symptoms", "setting": "[4]; three weeks on medication, 5 g/day", "value": "all symptoms significantly improved"}, {"measurement": "Intensity of signs and symptoms after stop", "setting": "[4]; two weeks after medication was stopped", "value": "the same as before therapy"}, {"measurement": "Lifespan of the Sandhoff mouse", "setting": "[5]", "value": "statistically significant increase in the lifespan"}]}]}
